Reference: ChEMBL document CHEMBL4619804, “Target-Based Identification and Optimization of 5-Indazol-5-yl Pyridones as Toll-like Receptor 7 and 8 Antagonists Using a Biochemical TLR8 Antagonist Competition Assay” (J Med Chem, 2020)

How the values were obtained:
Toll-like receptor 4 = Toll-like receptor 4 (Homo sapiens, UniProt O00206); test: Antagonist activity at TLR4 in human PBMC assessed as inhibition of LPS-induced TNFalpha production preincubated for 30 mins followed by LPS addition and measured after 20 hrs by HTRF assay; assay type: cell-based
Toll-like receptor 4, sequence (O00206 whole entry): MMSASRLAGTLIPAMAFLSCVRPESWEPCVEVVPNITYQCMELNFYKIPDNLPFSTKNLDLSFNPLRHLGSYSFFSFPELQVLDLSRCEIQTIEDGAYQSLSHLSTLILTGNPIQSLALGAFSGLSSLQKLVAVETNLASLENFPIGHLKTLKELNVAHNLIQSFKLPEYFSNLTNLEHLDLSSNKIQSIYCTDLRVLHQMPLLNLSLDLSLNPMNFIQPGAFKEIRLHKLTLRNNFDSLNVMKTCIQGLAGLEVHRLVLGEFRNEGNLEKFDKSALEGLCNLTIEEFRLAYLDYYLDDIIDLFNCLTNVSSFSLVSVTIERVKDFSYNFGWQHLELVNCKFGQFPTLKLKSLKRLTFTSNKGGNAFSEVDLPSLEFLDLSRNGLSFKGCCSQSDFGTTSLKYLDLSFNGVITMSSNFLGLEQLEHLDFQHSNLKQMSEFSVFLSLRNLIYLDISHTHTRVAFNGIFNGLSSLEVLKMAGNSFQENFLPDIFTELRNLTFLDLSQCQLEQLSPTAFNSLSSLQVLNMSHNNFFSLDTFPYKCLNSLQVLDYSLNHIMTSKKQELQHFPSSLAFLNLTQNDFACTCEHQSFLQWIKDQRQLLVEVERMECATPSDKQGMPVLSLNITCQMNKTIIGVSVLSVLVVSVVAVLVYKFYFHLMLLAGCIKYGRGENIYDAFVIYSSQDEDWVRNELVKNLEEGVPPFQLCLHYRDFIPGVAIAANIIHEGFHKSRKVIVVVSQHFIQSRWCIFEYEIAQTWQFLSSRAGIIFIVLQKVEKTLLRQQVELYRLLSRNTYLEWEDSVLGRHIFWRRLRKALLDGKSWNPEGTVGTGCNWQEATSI

Cytochrome P450 3A4 = Cytochrome P450 3A4 (Homo sapiens, UniProt P08684); test: Inhibition of CYP3A4 (unknown origin); assay type: ADME
Cytochrome P450 3A4, sequence (P08684 whole entry): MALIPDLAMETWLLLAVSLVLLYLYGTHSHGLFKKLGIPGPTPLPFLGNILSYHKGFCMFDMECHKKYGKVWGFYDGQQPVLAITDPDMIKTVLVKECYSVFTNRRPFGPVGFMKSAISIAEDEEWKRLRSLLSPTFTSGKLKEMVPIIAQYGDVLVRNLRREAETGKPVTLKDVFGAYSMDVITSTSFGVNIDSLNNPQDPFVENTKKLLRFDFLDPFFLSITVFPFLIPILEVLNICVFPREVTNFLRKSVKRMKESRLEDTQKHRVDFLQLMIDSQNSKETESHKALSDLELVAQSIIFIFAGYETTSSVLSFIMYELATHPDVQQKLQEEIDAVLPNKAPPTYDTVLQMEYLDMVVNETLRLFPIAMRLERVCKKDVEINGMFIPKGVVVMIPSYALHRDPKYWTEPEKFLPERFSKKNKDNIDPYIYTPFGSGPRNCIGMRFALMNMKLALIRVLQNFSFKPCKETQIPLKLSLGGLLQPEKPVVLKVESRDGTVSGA

Toll-like receptor 2 = Toll-like receptor 2 (Homo sapiens, UniProt O60603); test: Antagonist activity at TLR2 in human PBMC assessed as inhibition of Pam3CSK4-induced TNFalpha production preincubated for 30 mins followed by Pam3CSK4 addition and measured after 20 hrs by HTRF assay; assay type: cell-based
Toll-like receptor 2, sequence (O60603 whole entry): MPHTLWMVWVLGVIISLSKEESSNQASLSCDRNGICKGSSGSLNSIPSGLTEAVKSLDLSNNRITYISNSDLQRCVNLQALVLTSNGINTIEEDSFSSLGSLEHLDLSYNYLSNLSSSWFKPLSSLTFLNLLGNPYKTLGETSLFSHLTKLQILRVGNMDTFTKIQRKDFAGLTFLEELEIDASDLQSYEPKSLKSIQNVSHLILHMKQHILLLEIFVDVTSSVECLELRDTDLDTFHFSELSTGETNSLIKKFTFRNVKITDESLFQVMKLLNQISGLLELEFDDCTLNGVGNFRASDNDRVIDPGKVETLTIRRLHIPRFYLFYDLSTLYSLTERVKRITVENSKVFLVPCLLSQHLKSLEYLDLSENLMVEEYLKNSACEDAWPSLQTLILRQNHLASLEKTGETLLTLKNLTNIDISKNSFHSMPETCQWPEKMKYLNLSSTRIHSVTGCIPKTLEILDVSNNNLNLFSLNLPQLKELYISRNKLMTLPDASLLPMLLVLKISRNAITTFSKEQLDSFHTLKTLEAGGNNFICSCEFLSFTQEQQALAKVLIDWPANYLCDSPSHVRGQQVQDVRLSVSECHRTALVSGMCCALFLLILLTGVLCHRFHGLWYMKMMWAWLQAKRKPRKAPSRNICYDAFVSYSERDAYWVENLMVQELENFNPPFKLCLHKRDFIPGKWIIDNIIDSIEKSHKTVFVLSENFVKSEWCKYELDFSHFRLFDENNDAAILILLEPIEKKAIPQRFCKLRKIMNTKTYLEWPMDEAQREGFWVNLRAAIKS

Toll-like receptor 1 = target: T1, Toll-like receptor 1 (Homo sapiens, UniProt Q15399); test: Antagonist activity at TLR1 in human PBMC assessed as inhibition of Pam3CSK4-induced TNFalpha production preincubated for 30 mins followed by Pam3CSK4 addition and measured after 20 hrs by HTRF assay; assay type: cell-based
T1 sequence (Q15399 whole entry): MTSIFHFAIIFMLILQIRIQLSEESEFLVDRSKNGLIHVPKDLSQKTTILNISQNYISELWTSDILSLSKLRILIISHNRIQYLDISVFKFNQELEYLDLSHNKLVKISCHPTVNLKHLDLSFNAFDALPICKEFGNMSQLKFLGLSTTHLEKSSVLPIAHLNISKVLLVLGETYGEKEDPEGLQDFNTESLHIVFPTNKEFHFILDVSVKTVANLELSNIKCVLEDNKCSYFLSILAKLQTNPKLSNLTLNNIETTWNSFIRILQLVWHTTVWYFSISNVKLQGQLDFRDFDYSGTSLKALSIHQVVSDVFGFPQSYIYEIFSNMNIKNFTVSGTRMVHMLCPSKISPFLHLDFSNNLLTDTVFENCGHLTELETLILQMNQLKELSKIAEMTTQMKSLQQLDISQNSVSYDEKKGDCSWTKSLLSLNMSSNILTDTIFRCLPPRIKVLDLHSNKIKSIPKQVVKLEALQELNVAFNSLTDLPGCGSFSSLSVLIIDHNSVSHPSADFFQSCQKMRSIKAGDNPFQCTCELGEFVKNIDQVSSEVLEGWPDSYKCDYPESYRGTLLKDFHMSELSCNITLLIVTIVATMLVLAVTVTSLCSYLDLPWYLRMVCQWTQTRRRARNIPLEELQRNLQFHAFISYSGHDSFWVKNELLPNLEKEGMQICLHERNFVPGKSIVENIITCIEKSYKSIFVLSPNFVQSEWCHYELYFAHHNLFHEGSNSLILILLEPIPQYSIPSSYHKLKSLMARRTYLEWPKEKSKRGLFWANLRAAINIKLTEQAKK

Toll-like receptor 9 = target: T2, Toll-like receptor 9 (Homo sapiens, UniProt Q9NR96); test: Antagonist activity at TLR9 in human PBMC assessed as inhibition of ODN2216-induced IFNalpha production preincubated for 30 mins followed by ODN2216 addition and measured after 20 hrs by alphaLISA; assay type: cell-based
T2 sequence (Q9NR96 whole entry): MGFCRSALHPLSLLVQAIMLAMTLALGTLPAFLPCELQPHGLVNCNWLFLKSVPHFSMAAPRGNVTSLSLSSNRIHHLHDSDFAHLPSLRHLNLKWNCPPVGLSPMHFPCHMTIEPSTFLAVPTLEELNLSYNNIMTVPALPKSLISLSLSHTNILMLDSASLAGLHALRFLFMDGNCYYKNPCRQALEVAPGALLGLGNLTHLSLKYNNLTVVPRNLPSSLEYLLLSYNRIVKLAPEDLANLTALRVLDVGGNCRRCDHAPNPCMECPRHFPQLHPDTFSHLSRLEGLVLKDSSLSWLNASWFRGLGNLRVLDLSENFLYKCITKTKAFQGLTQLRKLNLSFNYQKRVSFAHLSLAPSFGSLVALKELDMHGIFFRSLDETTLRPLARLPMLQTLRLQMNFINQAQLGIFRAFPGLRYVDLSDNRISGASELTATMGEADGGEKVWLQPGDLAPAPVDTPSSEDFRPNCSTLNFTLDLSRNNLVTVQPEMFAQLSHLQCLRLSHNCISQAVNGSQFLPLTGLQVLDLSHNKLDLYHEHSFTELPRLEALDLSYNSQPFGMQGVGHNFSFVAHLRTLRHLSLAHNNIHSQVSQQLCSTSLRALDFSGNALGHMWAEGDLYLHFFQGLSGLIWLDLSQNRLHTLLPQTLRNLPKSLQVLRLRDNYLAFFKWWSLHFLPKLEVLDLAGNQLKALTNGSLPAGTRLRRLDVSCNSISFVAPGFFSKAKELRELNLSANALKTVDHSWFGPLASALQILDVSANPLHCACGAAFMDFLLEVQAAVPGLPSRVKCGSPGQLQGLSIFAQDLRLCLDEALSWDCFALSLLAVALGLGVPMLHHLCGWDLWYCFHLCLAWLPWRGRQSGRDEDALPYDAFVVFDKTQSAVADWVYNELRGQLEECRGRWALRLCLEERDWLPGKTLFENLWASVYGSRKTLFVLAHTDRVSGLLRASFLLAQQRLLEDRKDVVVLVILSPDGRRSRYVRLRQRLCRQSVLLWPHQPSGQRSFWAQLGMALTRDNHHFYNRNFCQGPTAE

[1] = target: T3, Interleukin-1 receptor type 1 (Homo sapiens, UniProt P14778); test: Antagonist activity at IL1R in human PBMC assessed as inhibition of IL1beta-induced TNFalpha production preincubated for 30 mins followed by IL1beta addition and measured after 20 hrs by HTRF assay; assay type: cell-based
T3 sequence (P14778 whole entry): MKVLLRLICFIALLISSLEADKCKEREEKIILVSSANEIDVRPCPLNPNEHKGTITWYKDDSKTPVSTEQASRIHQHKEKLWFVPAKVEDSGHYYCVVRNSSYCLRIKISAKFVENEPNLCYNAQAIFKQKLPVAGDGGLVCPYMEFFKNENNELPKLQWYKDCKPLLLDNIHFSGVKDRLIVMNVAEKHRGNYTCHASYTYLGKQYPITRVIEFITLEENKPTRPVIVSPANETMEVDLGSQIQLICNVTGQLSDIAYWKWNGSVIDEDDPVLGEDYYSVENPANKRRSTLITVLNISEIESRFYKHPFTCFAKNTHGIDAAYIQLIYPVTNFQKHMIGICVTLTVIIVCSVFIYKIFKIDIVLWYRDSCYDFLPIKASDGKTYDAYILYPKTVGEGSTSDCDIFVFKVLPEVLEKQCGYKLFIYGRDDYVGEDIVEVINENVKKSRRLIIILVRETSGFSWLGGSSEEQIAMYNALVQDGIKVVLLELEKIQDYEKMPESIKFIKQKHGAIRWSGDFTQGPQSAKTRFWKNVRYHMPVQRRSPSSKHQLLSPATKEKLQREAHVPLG

Toll-like receptor 5 = Toll-like receptor 5 (Homo sapiens, UniProt O60602); test: Antagonist activity at TLR5 in human PBMC assessed as inhibition of flagellin-induced TNFalpha production preincubated for 30 mins followed by flagellin addition and measured after 20 hrs by HTRF assay; assay type: cell-based
Toll-like receptor 5, sequence (O60602 whole entry): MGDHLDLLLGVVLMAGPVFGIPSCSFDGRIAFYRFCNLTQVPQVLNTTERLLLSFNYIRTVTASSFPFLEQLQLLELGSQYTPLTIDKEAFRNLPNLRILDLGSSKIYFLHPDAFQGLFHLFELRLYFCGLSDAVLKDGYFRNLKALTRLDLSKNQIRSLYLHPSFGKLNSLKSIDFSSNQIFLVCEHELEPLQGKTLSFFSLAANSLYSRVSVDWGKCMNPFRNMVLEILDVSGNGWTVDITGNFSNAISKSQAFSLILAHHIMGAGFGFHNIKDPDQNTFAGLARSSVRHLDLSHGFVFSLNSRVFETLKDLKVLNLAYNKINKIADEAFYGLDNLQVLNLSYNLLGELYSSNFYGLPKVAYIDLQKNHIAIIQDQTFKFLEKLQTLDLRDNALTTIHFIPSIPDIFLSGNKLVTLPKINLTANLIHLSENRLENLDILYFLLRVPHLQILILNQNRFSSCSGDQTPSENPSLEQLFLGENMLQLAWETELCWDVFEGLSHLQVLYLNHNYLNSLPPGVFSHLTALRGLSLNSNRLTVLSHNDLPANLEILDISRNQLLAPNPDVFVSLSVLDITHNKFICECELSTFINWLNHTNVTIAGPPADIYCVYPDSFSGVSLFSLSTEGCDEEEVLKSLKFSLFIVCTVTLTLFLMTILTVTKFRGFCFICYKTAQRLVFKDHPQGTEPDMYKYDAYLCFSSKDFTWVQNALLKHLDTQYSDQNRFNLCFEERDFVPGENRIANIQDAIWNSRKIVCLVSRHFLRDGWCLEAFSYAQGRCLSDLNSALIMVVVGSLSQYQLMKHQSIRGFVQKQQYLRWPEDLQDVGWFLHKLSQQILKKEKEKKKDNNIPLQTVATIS

Structure (SMILES): O=c1ccc(-c2cc(C(F)(F)F)c3nn([C@H]4CCNC[C@@H]4F)cc3c2)c2n1CCC2
- IC50 (Toll-like receptor 4): > 6.5 µM
- IC50 (Cytochrome P450 3A4): > 25 µM
- IC50 (Toll-like receptor 2): > 6.5 µM
- IC50 (Toll-like receptor 1): > 6.5 µM
- IC50 (Toll-like receptor 9): > 5.3 µM
- IC50 [1]: > 6.5 µM
- IC50 (Toll-like receptor 5): > 6.5 µM
